Measurements published in paper PMC7139549, “TLD1433 Photosensitizer Inhibits Conjunctival Melanoma Cells in Zebrafish Ectopic and Orthotopic Tumour Models” (Cancers, 2020).
Read-outs that look alike come from different tables or passages of the source.

How the values were obtained:
[1] = system: A375 cutaneous melanoma cell line; test: SRB cell viability assay, A375; type: cell-based, Human
Procedure: TLD1433 is known to generate reactive oxygen species (ROS) with high quantum efficacy in many cancer cell lines. However, there is no report of the in vitro toxicity of this compound in eye melanoma (UM) cell lines. We determined the cell viability of three conjunctival melanoma cell lines (CRMM1, CRMM2 and CM2005.1), and three uveal melanoma cell lines (OMM1, OMM2.5, MEL270) in the presence of TLD1433, both in the dark or under green light irradiation (21 mW/cm^2, 19 J/cm^2, 520 nm, 15 min), and compared this viability to epidermoid carcinoma A431 and cutaneous melanoma A375 cell lines under the same conditions. […] The phototoxicity index (PI), defined as the ratio of the dark EC50 to the light EC50, was also calculated and represents the amplification of TLD1433 activity with a light trigger. […]
(§1) Figure 2 Cell viability after TLD1433 treatment of eight tumour cell lines (CRMM1, CRMM2, CM2005.1, OMM1, OMM2.5, MEL270, A431, A375). […] The absorbance of Sulforhodamine B in solution was measured at 520 nm. […]
(§2) At day 0, cells were detached using 1mL of trypsin, resuspended in 4 mL of media and transferred to a 15 mL corning falcon tube. Cells were counted using trypan blue and BioRad® TC20™ automated cell counter (Figure 11). […] Next day, the dye was dissolved using Tri-base (0.25%) and absorbance of SRB at 510 nm was recorded from each well using a Tecan plate reader. […]

[2] = system: CM engrafted zebrafish embryos; test: Maximum tolerated dose in CM engrafted zebrafish embryos (ectopic and orthotopic model); type: in vivo, Zebrafish (Danio rerio); conditions: light-activated
Procedure: To engage both CM models for testing the efficacy of TLD1433 as a potential new PDT treatment strategy to combat CM growth, first, the MTD of TLD1433 delivered into zebrafish embryos engrafted with CM cells was measured (Table 2) following the same procedure as already described for wild type embryos (Figure 5 and Table 2). Engrafted embryos were more sensitive to light-activated TLD1433 than non-engrafted embryos (Table 2). MTD concentrations of 4.6 nM and 2.3 mM were delivered by WA, IV and RO administration. […] The TLD1433 concentration in these experiments was not increased further as the initial treatment was already at the pre-determined MTD.
For determining the MTD of the WA of the TLD1433 solution in wild type zebrafish, solutions of 2.3 nM, 4.6 nM, 9.2 nM, 11.5 nM, 23 nM were made before the experiment. At 2.5, 3.5, 4.5, 5.5 dpf, TLD1433 was added to the fish water and maintained for 12 h. At 3, 4, 5, 6 dpf, the fish water was refreshed and after 1 h, embryos were exposed to green light for 90 min (520 nm, 21 mW/cm^2, 114 J/cm^2). For the IV and RO administration, TLD1433 solutions (1.15 mM, 2.3 mM, 4.6 mM, 9.2 mM, 11.5 mM) were prepared before the experiment. At 3, 4, 5, 6 dpf, 1nL of TLD1433 was injected via the dorsal vein or the RO site and maintained for 1 h. After each of the 4 injections, the embryos were exposed to green light for 90 min (520 nm, 21 mW/cm^2, 114 J/cm^2). The images of treated and wild type embryos at 6 dpf were taken using a DFC420C camera coupled to a Leica MZ16FA fluorescence microscope. In order to determine the MTD of tumour cell bearing zebrafish, TLD1433 was performed according to the same procedure, delivered by WA, IV and […] administration as described above for the wild type embryos.

[3] = system: OMM2.5 uveal melanoma cell line; test: SRB cell viability assay, OMM2.5; type: cell-based, Human
Procedure: TLD1433 is known to generate reactive oxygen species (ROS) with high quantum efficacy in many cancer cell lines. However, there is no report of the in vitro toxicity of this compound in eye melanoma (UM) cell lines. We determined the cell viability of three conjunctival melanoma cell lines (CRMM1, CRMM2 and CM2005.1), and three uveal melanoma cell lines (OMM1, OMM2.5, MEL270) in the presence of TLD1433, both in the dark or under green light irradiation (21 mW/cm^2, 19 J/cm^2, 520 nm, 15 min), and compared this viability to epidermoid carcinoma A431 and cutaneous melanoma A375 cell lines under the same conditions. The protocol used was based on previous work from the Bonnet group, and differed slightly from recommendations from McFarland et al.. […] The effective concentration (EC50) values, i.e., the concentration required to reduce cell viability by 50% compared to untreated wells, were assessed by fitting the dose-response curves with a Hill equation. The phototoxicity index (PI), defined as the ratio of the dark EC50 to the light EC50, was also calculated and represents the amplification of TLD1433 activity with a light trigger. […]
as §1
as §2, with “11). Dilutions of 6000 (CRMM1), 6000 (CRMM2), 8000 (CM2005.1), 6000 (OMM1), 6000 (OMM2.5), 6000 (MEL270) 8000 (A431), and 4000 (A375) cells/well were calculated from each cell suspension at a final volume of 6 mL using the following formula: Vc=(Vt×10C)/Lc where Vt = total volume of solution, C = number of cells per well/per 100 μL and Lc = live cells count (cells/mL).” for “11).”

With `Cc1ccnc(-c2cc(C)ccn2)c1.Cc1ccnc(-c2cc(C)ccn2)c1.[Cl-].[Cl-].[Ru+2].c1csc(-c2ccc(-c3ccc(-c4nc5c6cccnc6c6ncccc6c5[nH]4)s3)s2)c1` [TLD1433] the EC50 ([1]; A375, dark, 24 h treatment, SRB, read-out: EC50, dark) was over 5000 nM, the EC50 ([1]; A375, green light 520 nm, 15 min, 21 mW/cm^2, 19 J.cm^−2, DLI 24 h, read-out: EC50,light) was 50 nM and the “Maximum Tolerated Dose (MTD)” value ([2]; Intravenous 1 nL) was 2.3 mM. The “Maximum Tolerated Dose (MTD)” value ([2]; Retro-orbital 1 nL) was 2.3 mM, the “Maximum Tolerated Dose (MTD)” value ([2]; Water administration) was 4.6e-06 mM and the EC50 ([3]; OMM2.5, dark, 24 h treatment, SRB, read-out: EC50, dark) was 640 nM. The EC50 ([3]; OMM2.5, green light 520 nm, 15 min, 21 mW/cm^2, 19 J.cm^−2, DLI 24 h, read-out: EC50,light) was 13 nM and the “PI (photo index)” value ([3]; OMM2.5, ratio of dark and light EC50, 19 J.cm^−2 green light) was 49.
